The source of these data is ChEMBL document CHEMBL3853339, “Bioactive phenols as potential neuroinflammation inhibitors from the leaves of Xanthoceras sorbifolia Bunge” (Bioorg Med Chem Lett, 2016).

Data set [1] can be described thus: Antineuroinflammatory activity in […] cells assessed as inhibition of LPS-induced NO production after 24 hrs in presence of LPS by Griess reaction. It counts as functional, cell-based. The settings on record: BV-2, 24 h.
A short description of data set [2]: Cytotoxicity against LPS-activated human BV2 cells assessed as cell viability at 1 uM after 24 hrs by MTT assay (reference value: 98.03 to 98.84%). It counts as toxicity, cell-based, Mus musculus, BV-2. Particulars: read-out: Activity. (In general: Tetrazolium assays rely on reduction of a dye to a coloured formazan, in cell work by metabolically active cells.)

A short description of data set [3]: Cytotoxicity against LPS-activated […] cells assessed as cell viability at 10 uM after 24 hrs by MTT assay (reference value: 98.03 to 98.84%). It counts as toxicity, cell-based, Mus musculus, BV-2. The settings on record: read-out: Activity.
Data set [4] can be described thus: Cytotoxicity against LPS-activated […] cells assessed as cell viability at 30 uM after 24 hrs by MTT assay (reference value: 98.03 to 98.84%). Particulars: read-out: Activity. It counts as toxicity, cell-based, Mus musculus, BV-2.
Data set [5] is described as follows: Cytotoxicity against LPS-activated human BV2 cells assessed as cell viability at 100 uM after 24 hrs by MTT assay (reference value: 98.03 to 98.84%). The settings on record: read-out: Activity. It counts as toxicity, cell-based, Mus musculus, BV-2.

On to `Oc1cc(O)c2c(c1)O[C@H](c1ccc(O)c(O)c1)[C@H](O)C2` [(-)-EPICATECHIN], for which the IC50 in data set [1] is 47.4 µM. Further, in data set [2], the viability at 24 h, 1 µM was 84.4%. Further, the viability at 24 h, 10 µM in data set [3] was determined as 87.6%. In addition, in data set [4], the viability at 24 h, 30 µM amounted to 88%. Moreover, the viability at 24 h, 100 µM in data set [5] amounted to 93.2%.
In the same order, the values of `COc1cc([C@@H]2OC[C@H]3[C@@H]2CO[C@H]3c2cc(OC)c(O[C@@H]3O[C@H](CO)[C@@H](O)[C@H](O)[C@H]3O)c(OC)c2)cc(OC)c1O[C@@H]1O[C@H](CO)[C@@H](O)[C@H](O)[C@H]1O` are > 100 µM, 100%, 97.5%, 100% and 94.9%.
Consider `O=c1c(O)c(-c2ccc(O)c(O)c2)oc2cc(O)cc(O)c12` [QUERCETIN], for which the IC50 in data set [1] was 39.5 µM. In data set [2], the viability at 24 h, 1 µM was determined as 87.5%. Besides, the viability at 24 h, 10 µM in data set [3] worked out at 90.7%. The viability at 24 h, 30 µM in data set [4] was 96.9%. For the same compound, the viability at 24 h, 100 µM in data set [5] was 99.7%.
In the same order, the values of `Oc1cc(O)c2c(c1)O[C@H](c1cc(O)c(O)c(O)c1)[C@@H](O)C2` [GALLOCATECHIN] are > 100 µM, 89.5%, 94.2%, 89.5% and 82.6%.
Take `Oc1cc(O)c2c(c1)O[C@H](c1ccc(O)c(O)c1)[C@@H](O)C2` [CIANIDANOL]: in data set [1], the IC50 worked out at 9.52 µM. Also, the viability at 24 h, 1 µM in data set [2] turned out to be 81.5%. Also, in data set [3], the viability at 24 h, 10 µM was determined as 88.3%. Besides, in data set [4], the viability at 24 h, 30 µM is 102%. Moreover, the viability at 24 h, 100 µM in data set [5] was determined as 117%.
With `CN(C)c1ccc(O)c2c1C[C@H]1C[C@H]3[C@H](N(C)C)C(O)=C(C(N)=O)C(=O)[C@@]3(O)C(O)=C1C2=O` [MINOCYCLINE], the IC50 in data set [1] turned out to be 37 µM.
Regarding `COc1cc(CO)cc(OC)c1O[C@@H]1O[C@H](CO)[C@@H](O)[C@H](O)[C@H]1O`, the IC50 in data set [1] was > 100 µM. In addition, the viability at 24 h, 1 µM in data set [2] came to 91.1%. Moreover, in data set [3], the viability at 24 h, 10 µM stood at 94.7%. For the same compound, the viability at 24 h, 30 µM in data set [4] came out at 90.7%. In addition, in data set [5], the viability at 24 h, 100 µM was 87%.
In the same order, the values of `COc1cc(-c2oc3cc(O)cc(O)c3c(=O)c2O[C@@H]2O[C@H](CO[C@@H]3O[C@@H](C)[C@H](O)[C@@H](O)[C@H]3O)[C@@H](O)[C@H](O)[C@H]2O)ccc1O` [NARCISSIN] are > 100 µM, 95.1%, 89.5%, 88.7% and 88.8%.
In the same order, the values of `COc1cc([C@@H]2OC[C@H]3[C@@H]2CO[C@@H]3c2cc(OC)c(O[C@@H]3O[C@H](CO)[C@@H](O)[C@H](O)[C@H]3O)c(OC)c2)cc(OC)c1O` are > 100 µM, 92.4%, 91.6%, 102% and 100%.
As to `Oc1cc(O)c2c(c1)O[C@H](c1cc(O)c(O)c(O)c1)[C@H](O)C2` [EPIGALLOCATECHIN], the IC50 in data set [1] was > 100 µM. In data set [2], the viability at 24 h, 1 µM was 95.3%. In addition, the viability at 24 h, 10 µM in data set [3] turned out to be 96.4%. In addition, the viability at 24 h, 30 µM in data set [4] was determined as 100%. Moreover, the viability at 24 h, 100 µM in data set [5] was found to be 94.6%.
For `C[C@@H]1O[C@@H](Oc2c(-c3ccc(O)c(O)c3)oc3cc(O)cc(O)c3c2=O)[C@H](O)[C@H](O)[C@H]1O` [QUERCITRIN], the IC50 in data set [1] is > 100 µM. In data set [2], the viability at 24 h, 1 µM is 92%. Moreover, the viability at 24 h, 10 µM in data set [3] is 91%. Further, in data set [4], the viability at 24 h, 30 µM is 99.3%. In addition, the viability at 24 h, 100 µM in data set [5] amounted to 96.5%.
Taken in the same sequence, the figures for `C[C@@H]1O[C@@H](Oc2c(-c3cc(O)c(O)c(O)c3)oc3cc(O)cc(O)c3c2=O)[C@H](O)[C@H](O)[C@H]1O` were > 100 µM, 97.9%, 99.5%, 99.3% and 107%.
Taken in the same sequence, the figures for `O=C(O)/C=C\c1ccc(O[C@@H]2O[C@H](CO)[C@@H](O)[C@H](O)[C@H]2O)cc1` were > 100 µM, 90.9%, 95.4%, 93% and 90%.
In the same order, the values of `Oc1cc(O)c2c(c1)O[C@]1(c3ccc(O)c(O)c3)Oc3cc(O)c4c(c3[C@H]2[C@@H]1O)O[C@@]1(c2ccc(O)c(O)c2)Oc2cc(O)c3c(c2[C@@H]4[C@H]1O)O[C@@H](c1ccc(O)c(O)c1)[C@H](O)C3` are > 100 µM, 94.4%, 97.3%, 104% and 112%.
For the compound `C[C@@H]1O[C@@H](OC[C@H]2O[C@@H](Oc3c(-c4ccc(O)cc4)oc4cc(O)cc(O)c4c3=O)[C@H](O)[C@@H](O)[C@@H]2O)[C@H](O)[C@H](O)[C@H]1O` [NICOTIFLOROSIDE], the IC50 in data set [1] turned out to be 88 µM. In addition, the viability at 24 h, 1 µM in data set [2] was determined as 98.7%. The viability at 24 h, 10 µM in data set [3] amounted to 110%. Moreover, the viability at 24 h, 30 µM in data set [4] was 92.1%. The viability at 24 h, 100 µM in data set [5] came out at 113%.
Take `O=C(O)/C=C/c1ccc(O[C@@H]2O[C@H](CO)[C@@H](O)[C@H](O)[C@H]2O)cc1`: the 50% inhibitory concentration (IC50) in data set [1] stood at 9.08 µM. In data set [2], the viability at 24 h, 1 µM is 101%. Besides, in data set [3], the viability at 24 h, 10 µM was found to be 98.4%. In addition, the viability at 24 h, 30 µM in data set [4] stood at 101%. Moreover, the viability at 24 h, 100 µM in data set [5] was 94.7%.
For `O=c1c(O[C@@H]2O[C@H](CO)[C@@H](O)[C@H](O)[C@H]2O)c(-c2ccc(O)c(O)c2)oc2cc(O)cc(O)c12` [ISOQUERCETIN], the IC50 in data set [1] came to 13.4 µM. For the same compound, in data set [2], the viability at 24 h, 1 µM is 101%. Moreover, the viability at 24 h, 10 µM in data set [3] was 98.4%. Further, in data set [4], the viability at 24 h, 30 µM was 87.7%. The viability at 24 h, 100 µM in data set [5] was 85.2%.
Take `C[C@@H]1O[C@@H](OC[C@H]2O[C@@H](Oc3c(-c4ccc(O)c(O)c4)oc4cc(O)cc(O)c4c3=O)[C@H](O)[C@@H](O)[C@@H]2O)[C@H](O)[C@H](O)[C@H]1O` [RUTIN]: the viability at 24 h, 1 µM in data set [2] was 97.2%. In addition, the viability at 24 h, 10 µM in data set [3] stood at 94.6%. Further, in data set [4], the viability at 24 h, 30 µM was found to be 91%. In addition, the viability at 24 h, 100 µM in data set [5] is 95%.
As to `COc1cc([C@H]2OC[C@H]3[C@@H]2CO[C@@H]3c2cc(OC)c(O[C@@H]3O[C@H](CO)[C@@H](O)[C@H](O)[C@H]3O)c(OC)c2)cc(OC)c1O`, the half-inhibitory concentration (IC50) in data set [1] is 3.08 µM. In addition, in data set [2], the viability at 24 h, 1 µM turned out to be 92.9%. In addition, the viability at 24 h, 10 µM in data set [3] was 87.4%. The viability at 24 h, 30 µM in data set [4] is 95.4%. For the same compound, the viability at 24 h, 100 µM in data set [5] turned out to be 94.4%.
On to `O=c1c(O[C@@H]2O[C@H](CO)[C@@H](O)[C@H](O)[C@H]2O[C@@H]2O[C@H](CO)[C@@H](O)[C@H](O)[C@H]2O)c(-c2ccc(O)c(O)c2)oc2cc(O)cc(O)c12`, for which, in data set [1], the IC50 was > 100 µM. For the same compound, the viability at 24 h, 1 µM in data set [2] worked out at 84.5%. Besides, the viability at 24 h, 10 µM in data set [3] was 87.7%. Further, in data set [4], the viability at 24 h, 30 µM was found to be 96.5%. Further, the viability at 24 h, 100 µM in data set [5] is 108%.
In the same order, the values of `O=c1c(O)c(-c2cc(O)c(O)c(O)c2)oc2cc(O)cc(O)c12` [MYRICETIN] are > 100 µM, 97.7%, 98.4%, 109% and 116%.
Take `COc1cc(/C=C/C(=O)O)cc(OC)c1O[C@@H]1O[C@H](CO)[C@@H](O)[C@H](O)[C@H]1O`: the IC50 in data set [1] is > 100 µM. In data set [2], the viability at 24 h, 1 µM turned out to be 94.5%. Further, in data set [3], the viability at 24 h, 10 µM was 96.3%. In addition, the viability at 24 h, 30 µM in data set [4] was found to be 93.1%. Further, in data set [5], the viability at 24 h, 100 µM is 95.6%.
For the compound `C[C@@H]1O[C@@H](OC[C@H]2O[C@@H](Oc3c(-c4cc(O)c(O)c(O)c4)oc4cc(O)cc(O)c4c3=O)[C@H](O)[C@@H](O)[C@@H]2O)[C@H](O)[C@H](O)[C@H]1O`, the IC50 in data set [1] stood at 74.7 µM. For the same compound, in data set [2], the viability at 24 h, 1 µM amounted to 92.2%. Further, the viability at 24 h, 10 µM in data set [3] came to 87.1%. The viability at 24 h, 30 µM in data set [4] is 86%. Besides, in data set [5], the viability at 24 h, 100 µM worked out at 86.9%.

Usually IC50 stands for the midpoint of a concentration-inhibition curve.
